Laboratory results taken from US7709471B2, “Compounds” (AstraZeneca AB, priority 2006, dated 2010).
Counter-ions that a name gives are not always drawn. Like-named read-outs stand apart in the source and are kept apart here.

Columns and labels:
[1] = tested on: human colon tumour cell line HT29; assay: Cellular Assay (phosphohistone H3 Ser10 mitotic marker, HT29); assay type: cell-based; details: HT-29, 24 h, HT29 cells
Description: Chromosome condensation in mitosis is accompanied by phosphorylation of histone H3 on serine 10.
After 24 hours, cells were fixed in 3.7% (v/v) formaldehyde then permeabilised and blocked for 10 minutes in 100 μl 0.5% (v/v) Triton X-100, 1% (w/v) bovine serum albumin (BSA) in phosphate buffered saline (PBS). […] The raw assay data were analysed by non-linear regression analysis and used to determine an IC50 value for each compound.

recombinant Plk1 = recombinant Plk1 (Homo sapiens, UniProt P53350); assay: In Vitro Plk1 Enzyme Assay (SPA, GST-Cdc25C phosphorylation); assay type: biochemical; details: ATP 64 nM, 90 minutes, read-out: IC50 (Plk1 enzyme inhibition)
Chain of recombinant Plk1 (P53350 whole entry): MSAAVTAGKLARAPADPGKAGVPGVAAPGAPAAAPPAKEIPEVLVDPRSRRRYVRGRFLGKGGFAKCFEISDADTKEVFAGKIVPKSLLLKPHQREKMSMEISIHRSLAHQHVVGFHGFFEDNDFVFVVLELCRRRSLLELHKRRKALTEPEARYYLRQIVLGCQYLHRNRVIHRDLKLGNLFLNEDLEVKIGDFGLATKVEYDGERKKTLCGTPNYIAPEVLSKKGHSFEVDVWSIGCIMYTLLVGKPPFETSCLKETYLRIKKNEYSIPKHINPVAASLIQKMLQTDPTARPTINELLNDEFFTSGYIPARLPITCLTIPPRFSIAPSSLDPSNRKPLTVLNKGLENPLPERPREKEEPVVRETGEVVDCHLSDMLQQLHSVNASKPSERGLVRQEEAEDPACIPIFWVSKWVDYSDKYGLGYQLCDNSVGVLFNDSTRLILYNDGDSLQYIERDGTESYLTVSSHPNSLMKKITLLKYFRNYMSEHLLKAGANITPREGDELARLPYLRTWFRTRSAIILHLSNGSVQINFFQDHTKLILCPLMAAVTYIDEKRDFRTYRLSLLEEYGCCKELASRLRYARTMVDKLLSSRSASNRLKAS

[2] = read-out: IC50 (cellular assay, phosphohistone H3)

| Compound | IC50 [1, 2] [nM] | IC50 (recombinant Plk1) [nM] | IC50 ([1]; read-out: Cell IC50) [nM] |
| --- | --- | --- | --- |
| CC(C)N1CCC(=O)N(C)c2cnc(Nc3ccc(C(=O)NCCN4CCOCC4)cc3)nc21 [Example 218, 4-[(2-methyl-3-oxo-6-propan-2-yl-2,6,8,10-tetrazabicyclo[5.4.0]undeca-7,9,11-trien-9-yl)amino]-N-(2-morpholin-4-ylethyl)benzamide] | < 30000 | < 300 |  |
| COCCN1CCC(NC(=O)c2ccc(Nc3ncc4c(n3)N(C3CCCC3)CC(C)(C)C(=O)N4C)c(OC)c2)CC1 [Example 244, 4-[(2-cyclopentyl-4,4,6-trimethyl-5-oxo-2,6,9,11-tetrazabicyclo[5.4.0]undeca-7,9,11-trien-10-yl)amino]-3-methoxy-N-[1-(2-methoxyethyl)-4-piperidyl]benzamide] | < 300 | < 1000 |  |
| COc1cc(C(=O)NCC(C)(C)CN(C)C)ccc1Nc1ncc2c(n1)N(C1CCCC1)CC1(CC1)C(=O)N2C [Example 386, 4-(9′-cyclopentyl-5′-methyl-6′-oxo-5′,6′,8′,9′-tetrahydrospiro[cyclopropane-1,7′-pyrimido[5,4-b][1,4]diazepine]-2′-ylamino)-N-(3-dimethylamino-2,2-dimethyl-propyl)-3-methoxy-benzamide] | < 300 | < 300 |  |
| CN1C(=O)CCN(C2CCCC2)c2nc(Nc3ccc(C(=O)NCCN4CCOCC4)cc3Cl)ncc21 [Example 184, 3-chloro-4-[(6-cyclopentyl-2-methyl-3-oxo-2,6,8,10-tetrazabicyclo[5.4.0]undeca-8,10,12-trien-9-yl)amino]-N-(2-morpholin-4-ylethyl)benzamide] | < 1000 | < 1000 |  |
| COc1cc(C(=O)NC2CCN(C)CC2)c(F)cc1Nc1ncc2c(n1)N(C1CCCC1)CCC(=O)N2C [Example 48, 4-[(6-cyclopentyl-2-methyl-3-oxo-2,6,8,10-tetrazabicyclo[5.4.0]undeca-8,10,12-trien-9-yl)amino]-2-fluoro-5-methoxy-N-(1-methyl-4-piperidyl)benzamide] | < 300 | < 300 |  |
| COc1cc(C(=O)NCC2CCCN(C)C2)ccc1Nc1ncc2c(n1)N(C1CCCC1)CCC(=O)N2C (centres unmarked) [Example 84, 4-[(6-cyclopentyl-2-methyl-3-oxo-2,6,8,10-tetrazabicyclo[5.4.0]undeca-8,10,12-trien-9-yl)amino]-3-methoxy-N-[(1-methyl-3-piperidyl)methyl]benzamide] | < 300 | < 300 |  |
| CC(=O)N1CCN(c2ccc(Nc3ncc4c(n3)N(C3CCCC3)CCC(=O)N4C)cc2)CC1 [Example 128, 9-[[4-(4-acetylpiperazin-1-yl)phenyl]amino]-6-cyclopentyl-2-methyl-2,6,8,10-tetrazabicyclo[5.4.0]undeca-8,10,12-trien-3-one] | < 30000 | < 1000 |  |
| COc1cc(C(=O)NCC(C)(C)CN)ccc1Nc1ncc2c(n1)N(C1CCCC1)CCC(=O)N2C [Example 46, N-(3-amino-2,2-dimethyl-propyl)-4-[(6-cyclopentyl-2-methyl-3-oxo-2,6,8,10-tetrazabicyclo[5.4.0]undeca-8,10,12-trien-9-yl)amino]-3-methoxy-benzamide] | < 300 | < 300 |  |
| CC(=O)Nc1cccc(Nc2ncc3c(n2)N(C2CCCC2)CCC(=O)N3C)c1 [Example 177, N-[3-[(6-cyclopentyl-2-methyl-3-oxo-2,6,8,10-tetrazabicyclo[5.4.0]undeca-8,10,12-trien-9-yl)amino]phenyl]acetamide] | < 30000 | < 100000 |  |
| CCc1ccccc1Nc1ncc2c(n1)N(C1CCCC1)CCC(=O)N2C [Example 143, 6-cyclopentyl-9-[(2-ethylphenyl)amino]-2-methyl-2,6,8,10-tetrazabicyclo[5.4.0]undeca-8,10,12-trien-3-one] | < 30000 | < 1000 |  |
| COc1cc(C(=O)NCCN2CCCCC2)ccc1Nc1ncc2c(n1)N(C(C)C)CCC(=O)N2C [Example 205, 3-methoxy-4-[(2-methyl-3-oxo-6-propan-2-yl-2,6,8,10-tetrazabicyclo[5.4.0]undeca-7,9,11-trien-9-yl)amino]-N-[2-(1-piperidyl)ethyl]benzamide] | < 300 | < 100000 |  |
| CCCN1CC[C@@H](NC(=O)c2ccc(Nc3ncc4c(n3)N(C3CCCC3)CCC(=O)N4C)c(OC)c2)C1 [Example 327, 4-[(2-cyclopentyl-6-methyl-5-oxo-2,6,9,11-tetrazabicyclo[5.4.0]undeca-7,9,11-trien-10-yl)amino]-3-methoxy-N-[(3R)-1-propylpyrrolidin-3-yl]benzamide] | < 300 | < 300 |  |
| CCN(CC)CCCNC(=O)c1ccc(Nc2ncc3c(n2)N(C2CCCC2)CCC(=O)N3C)c(OC)c1 [Example 78, 4-[(6-cyclopentyl-2-methyl-3-oxo-2,6,8,10-tetrazabicyclo[5.4.0]undeca-8,10,12-trien-9-yl)amino]-N-(3-diethylaminopropyl)-3-methoxy-benzamide] | < 300 | < 300 |  |
| COc1cc(C(=O)NCCN2CCC(F)(F)CC2)ccc1Nc1ncc2c(n1)N(C1CCCC1)CCC(=O)N2C [Example 37, 4-[(6-cyclopentyl-2-methyl-3-oxo-2,6,8,10-tetrazabicyclo[5.4.0]undeca-8,10,12-trien-9-yl)amino]-N-[2-(4,4-difluoro-1-piperidyl)ethyl]-3-methoxy-benzamide] | < 300 | < 1000 |  |
| COc1cc(C(=O)NC2CCN(C3CC3)CC2)ccc1Nc1ncc2c(n1)N(C1CCCC1)CCC(=O)N2C [Example 11, 4-[(6-cyclopentyl-2-methyl-3-oxo-2,6,8,10-tetrazabicyclo[5.4.0]undeca-8,10,12-trien-9-yl)amino]-N-(1-cyclopropyl-4-piperidyl)-3-methoxy-benzamide] | < 300 | < 300 |  |
| COc1cc(C(=O)NCC(C)(C)CN(C)C)ccc1Nc1ncc2c(n1)N(C1CCCC1)CCC(=O)N2C [Example 10, 4-[(2-Cyclopentyl-6-methyl-5-oxo-2,6,9,11-tetrazabicyclo[5.4.0]undeca-8,10,12-trien-10-yl)amino]-N-(3-dimethylamino-2,2-dimethyl-propyl)-3-methoxy-benzamide hydrochloride] | < 300 | < 300 |  |
| CCN1CCC(NC(=O)c2ccc(Nc3ncc4c(n3)N(C3CCCC3)CCC(=O)N4C)c(OC)c2)CC1 [Example 61, 4-[(6-cyclopentyl-2-methyl-3-oxo-2,6,8,10-tetrazabicyclo[5.4.0]undeca-8,10,12-trien-9-yl)amino]-N-(1-ethyl-4-piperidyl)-3-methoxy-benzamide] | < 300 | < 300 |  |
| COc1cc(C(=O)NCc2ccccc2)ccc1Nc1ncc2c(n1)N(C1CCCC1)CCC(=O)N2C [Example 96, N-benzyl-4-[(6-cyclopentyl-2-methyl-3-oxo-2,6,8,10-tetrazabicyclo[5.4.0]undeca-8,10,12-trien-9-yl)amino]-3-methoxy-benzamide] | < 300 | < 100000 |  |
| COc1cc(C(=O)NC(C)C)ccc1Nc1ncc2c(n1)N(C1CCCC1)CCC(=O)N2C [Example 95, 4-[(6-cyclopentyl-2-methyl-3-oxo-2,6,8,10-tetrazabicyclo[5.4.0]undeca-8,10,12-trien-9-yl)amino]-3-methoxy-N-propan-2-yl-benzamide] | < 300 | < 1000 |  |
| COc1cc(C(=O)NCCCCN2CCCC2)ccc1Nc1ncc2c(n1)N(C(C)C)CCC(=O)N2C [Example 209, 3-methoxy-4-[(2-methyl-3-oxo-6-propan-2-yl-2,6,8,10-tetrazabicyclo[5.4.0]undeca-7,9,11-trien-9-yl)amino]-N-(4-pyrrolidin-1-ylbutyl)benzamide] | < 300 | < 300 |  |
| CN1CCC(NC(=O)c2ccc(Nc3ncc4c(n3)N(C3CCCC3)CCC(=O)N4C)cn2)CC1 [Example 270, 5-[(6-cyclopentyl-2-methyl-3-oxo-2,6,8,10-tetrazabicyclo[5.4.0]undeca-8,10,12-trien-9-yl)amino]-N-(1-methyl-4-piperidyl)pyridine-2-carboxamide] | < 30000 | < 300 |  |
| COc1cc(C(=O)NC2CCC(N(C)C)CC2)ccc1Nc1ncc2c(n1)N(C1CCCC1)CCC(=O)N2C (centres unmarked) [Example 60, 4-[(6-cyclopentyl-2-methyl-3-oxo-2,6,8,10-tetrazabicyclo[5.4.0]undeca-8,10,12-trien-9-yl)amino]-N-(4-dimethylaminocyclohexyl)-3-methoxy-benzamide] | < 300 | < 300 |  |
| COc1cc(C(N)=O)ccc1Nc1ncc2c(n1)N(C1CCCC1)CCC(=O)N2C [Example 92, 4-[(6-cyclopentyl-2-methyl-3-oxo-2,6,8,10-tetrazabicyclo[5.4.0]undeca-8,10,12-trien-9-yl)amino]-3-methoxy-benzamide] | < 300 | < 300 |  |
| COc1cc(C(=O)NCCN(C)C)ccc1Nc1ncc2c(n1)N(C1CCCC1)CCC(=O)N2C [Example 14, 4-[(6-cyclopentyl-2-methyl-3-oxo-2,6,8,10-tetrazabicyclo[5.4.0]undeca-8,10,12-trien-9-yl)amino]-N-(2-dimethylaminoethyl)-3-methoxy-benzamide] | < 300 | < 300 | 92 |
| CCOc1cc(C(=O)N[C@H]2C[C@H]3CCC[C@@H](C2)N3C)ccc1Nc1ncc2c(n1)N(C(C)C)CCC(=O)N2C [Example 283, 3-ethoxy-N-[(1S,5R)-9-methyl-9-azabicyclo[3.3.1]non-7-yl]-4-[(6-methyl-5-oxo-2-propan-2-yl-2,6,9,11-tetrazabicyclo[5.4.0]undeca-8,10,12-trien-10-yl)amino]benzamide] | < 300 | < 300 |  |
| COc1cc(C(=O)NCCN(C)C)ccc1Nc1ncc2c(n1)N(C(C)C)CCC(=O)N2C [Example 207, N-(2-dimethylaminoethyl)-3-methoxy-4-[(2-methyl-3-oxo-6-propan-2-yl-2,6,8,10-tetrazabicyclo[5.4.0]undeca-7,9,11-trien-9-yl)amino]benzamide] | < 300 | < 300 |  |
